Measured values published in the kinase profiling compilation of Christmann-Franck et al. (2016).

How the values were obtained:
Assay in all cases: KINOMEscan competition binding
Conditions in all cases: compound 2.0 µM
RIPK1 (human) = RIPK1 (human) (UniProt Q13546)
STK25 (human) = STK25 (human) (UniProt O00506)
PRKAA1 (human) = PRKAA1 (human) (UniProt Q13131)
[1] = system: RET (human), P07949 [M918T]
PRKAA2 (human) = PRKAA2 (human) (UniProt P54646)
CDK18 (human) = CDK18 (human) (UniProt Q07002)
ICK (human) = ICK (human) (UniProt Q9UPZ9)
PTK6 (human) = PTK6 (human) (UniProt Q13882)
SGK110 (human) = SGK110 (human) (UniProt P0C264)
[2] = system: FLT3 (human), P36888 [R834Q]
CDK9 (human) = CDK9 (human) (UniProt P50750)
MAP3K12 (human) = MAP3K12 (human) (UniProt Q12852)
MATK (human) = MATK (human) (UniProt P42679)
[3] = system: FLT3 (human), P36888 [D835Y]
IRAK3 (human) = IRAK3 (human) (UniProt Q9Y616)
ALK (human) = ALK (human) (UniProt Q9UM73)
SIK1 (human) = SIK1 (human) (UniProt P57059)
HCK (human) = HCK (human) (UniProt P08631)
PLK2 (human) = PLK2 (human) (UniProt Q9NYY3)
IRAK4 (human) = IRAK4 (human) (UniProt Q9NWZ3)
CSNK1E (human) = CSNK1E (human) (UniProt P49674)
MAP3K15 (human) = MAP3K15 (human) (UniProt Q6ZN16)
OXSR1 (human) = OXSR1 (human) (UniProt O95747)
CDK19 (human) = CDK19 (human) (UniProt Q9BWU1)
CDK17 (human) = CDK17 (human) (UniProt Q00537)
PRKCI (human) = PRKCI (human) (UniProt P41743)
MELK (human) = MELK (human) (UniProt Q14680)
RPS6KA6 KD2 (human) = RPS6KA6 KD2 (human) (UniProt Q9UK32)
PDGFRA (human) = PDGFRA (human) (UniProt P16234)
EPHA7 (human) = EPHA7 (human) (UniProt Q15375)
HIPK1 (human) = HIPK1 (human) (UniProt Q86Z02)
CAMK1G (human) = CAMK1G (human) (UniProt Q96NX5)
IGF1R (human) = IGF1R (human) (UniProt P08069)
MAP2K2 (human) = MAP2K2 (human) (UniProt P36507)
[4] = system: EGFR (human), P00533 [746-750 del]
ERBB3 (human) = ERBB3 (human) (UniProt P21860)
ZAP70 (human) = ZAP70 (human) (UniProt P43403)
MAP4K3 (human) = MAP4K3 (human) (UniProt Q8IVH8)
MYLK4 (human) = MYLK4 (human) (UniProt Q86YV6)
PDPK1 (human) = PDPK1 (human) (UniProt O15530)
TEK (human) = TEK (human) (UniProt Q02763)
TNIK (human) = TNIK (human) (UniProt Q9UKE5)
[5] = system: MET (human), P08581 [Y1235D]

EPHA7 (human), sequence (Q15375 whole entry, looked up): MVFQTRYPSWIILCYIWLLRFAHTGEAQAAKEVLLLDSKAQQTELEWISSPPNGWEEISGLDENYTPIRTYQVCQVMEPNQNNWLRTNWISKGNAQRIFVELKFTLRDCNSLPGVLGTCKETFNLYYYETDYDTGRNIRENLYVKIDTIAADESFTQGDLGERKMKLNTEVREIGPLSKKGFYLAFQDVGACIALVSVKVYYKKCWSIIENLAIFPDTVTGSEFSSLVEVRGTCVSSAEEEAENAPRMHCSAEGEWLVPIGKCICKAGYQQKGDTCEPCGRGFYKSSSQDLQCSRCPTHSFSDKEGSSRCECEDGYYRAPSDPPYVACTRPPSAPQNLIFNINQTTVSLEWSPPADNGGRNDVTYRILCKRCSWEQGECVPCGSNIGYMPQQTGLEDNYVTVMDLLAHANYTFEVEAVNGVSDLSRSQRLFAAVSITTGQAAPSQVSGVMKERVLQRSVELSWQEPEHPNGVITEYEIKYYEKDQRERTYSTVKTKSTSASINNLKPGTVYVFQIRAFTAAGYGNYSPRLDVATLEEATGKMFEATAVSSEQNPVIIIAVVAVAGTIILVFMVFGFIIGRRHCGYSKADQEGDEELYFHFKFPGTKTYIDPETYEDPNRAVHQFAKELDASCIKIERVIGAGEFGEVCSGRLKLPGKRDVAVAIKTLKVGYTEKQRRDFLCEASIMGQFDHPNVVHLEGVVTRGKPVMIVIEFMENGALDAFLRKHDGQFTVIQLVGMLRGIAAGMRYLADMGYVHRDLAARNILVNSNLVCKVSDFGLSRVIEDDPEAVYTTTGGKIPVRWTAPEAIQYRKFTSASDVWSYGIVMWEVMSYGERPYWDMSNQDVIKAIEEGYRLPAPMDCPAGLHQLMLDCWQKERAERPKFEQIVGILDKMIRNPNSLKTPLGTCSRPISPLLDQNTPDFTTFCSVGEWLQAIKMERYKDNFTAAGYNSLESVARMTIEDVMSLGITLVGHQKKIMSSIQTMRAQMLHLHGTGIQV
STK25 (human), sequence (O00506 whole entry, looked up): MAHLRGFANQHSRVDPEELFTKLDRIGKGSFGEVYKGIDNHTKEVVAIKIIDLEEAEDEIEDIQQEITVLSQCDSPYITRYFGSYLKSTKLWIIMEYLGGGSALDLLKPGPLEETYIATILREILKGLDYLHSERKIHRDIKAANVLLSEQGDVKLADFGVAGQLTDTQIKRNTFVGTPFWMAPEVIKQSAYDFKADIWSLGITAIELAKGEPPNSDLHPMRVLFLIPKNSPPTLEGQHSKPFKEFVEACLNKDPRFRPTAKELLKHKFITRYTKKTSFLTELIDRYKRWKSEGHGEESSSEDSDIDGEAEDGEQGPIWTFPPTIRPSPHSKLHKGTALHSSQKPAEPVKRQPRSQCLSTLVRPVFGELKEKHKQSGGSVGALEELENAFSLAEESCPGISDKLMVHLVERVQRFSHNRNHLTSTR
CDK19 (human), sequence (Q9BWU1 whole entry, looked up): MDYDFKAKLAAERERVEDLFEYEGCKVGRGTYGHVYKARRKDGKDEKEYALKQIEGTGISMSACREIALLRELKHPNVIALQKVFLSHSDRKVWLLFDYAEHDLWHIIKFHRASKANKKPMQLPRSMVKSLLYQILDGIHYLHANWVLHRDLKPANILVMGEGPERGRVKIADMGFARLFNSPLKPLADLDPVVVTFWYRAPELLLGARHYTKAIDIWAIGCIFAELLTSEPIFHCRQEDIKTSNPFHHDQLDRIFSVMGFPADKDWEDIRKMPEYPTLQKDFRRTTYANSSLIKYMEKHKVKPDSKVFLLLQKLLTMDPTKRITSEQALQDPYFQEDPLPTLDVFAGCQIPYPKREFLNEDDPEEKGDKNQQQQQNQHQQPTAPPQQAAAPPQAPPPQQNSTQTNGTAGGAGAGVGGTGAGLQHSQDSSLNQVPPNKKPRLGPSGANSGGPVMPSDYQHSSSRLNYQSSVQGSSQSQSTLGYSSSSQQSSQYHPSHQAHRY
TNIK (human), sequence (Q9UKE5 whole entry, looked up): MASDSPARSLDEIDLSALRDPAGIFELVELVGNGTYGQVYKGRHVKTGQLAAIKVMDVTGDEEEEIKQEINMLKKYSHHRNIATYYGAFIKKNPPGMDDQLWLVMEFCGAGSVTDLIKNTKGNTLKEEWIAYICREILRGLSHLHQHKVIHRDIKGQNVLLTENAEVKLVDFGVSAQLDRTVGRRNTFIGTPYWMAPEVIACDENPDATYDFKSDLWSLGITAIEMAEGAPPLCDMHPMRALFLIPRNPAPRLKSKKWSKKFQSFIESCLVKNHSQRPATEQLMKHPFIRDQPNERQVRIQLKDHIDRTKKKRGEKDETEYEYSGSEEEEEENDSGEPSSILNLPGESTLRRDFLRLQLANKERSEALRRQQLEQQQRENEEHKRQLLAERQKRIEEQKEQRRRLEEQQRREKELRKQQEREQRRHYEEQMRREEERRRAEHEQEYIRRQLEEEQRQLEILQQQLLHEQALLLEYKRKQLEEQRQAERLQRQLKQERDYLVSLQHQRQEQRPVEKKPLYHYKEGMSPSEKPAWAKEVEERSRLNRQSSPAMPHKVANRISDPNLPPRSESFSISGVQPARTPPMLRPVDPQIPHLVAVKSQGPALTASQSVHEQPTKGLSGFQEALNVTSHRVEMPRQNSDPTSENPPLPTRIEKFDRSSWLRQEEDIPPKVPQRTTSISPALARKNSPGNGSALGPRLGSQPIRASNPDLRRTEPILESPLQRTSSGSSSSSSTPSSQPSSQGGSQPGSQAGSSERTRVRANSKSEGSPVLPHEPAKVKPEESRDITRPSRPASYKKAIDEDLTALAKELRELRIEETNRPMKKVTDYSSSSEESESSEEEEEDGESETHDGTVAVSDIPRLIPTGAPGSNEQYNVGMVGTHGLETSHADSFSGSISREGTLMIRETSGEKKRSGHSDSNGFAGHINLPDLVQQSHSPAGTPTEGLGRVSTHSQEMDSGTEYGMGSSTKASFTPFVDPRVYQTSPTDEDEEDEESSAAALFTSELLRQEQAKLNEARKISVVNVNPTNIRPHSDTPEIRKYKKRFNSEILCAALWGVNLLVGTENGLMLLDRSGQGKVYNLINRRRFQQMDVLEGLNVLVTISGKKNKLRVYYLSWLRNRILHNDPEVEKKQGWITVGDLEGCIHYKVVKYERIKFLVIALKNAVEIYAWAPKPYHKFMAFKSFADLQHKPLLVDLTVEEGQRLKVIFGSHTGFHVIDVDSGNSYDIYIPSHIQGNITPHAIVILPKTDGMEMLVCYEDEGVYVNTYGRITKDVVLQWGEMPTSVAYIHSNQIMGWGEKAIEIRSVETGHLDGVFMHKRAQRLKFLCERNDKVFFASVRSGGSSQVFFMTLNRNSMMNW
SGK110 (human), sequence (P0C264 whole entry, looked up): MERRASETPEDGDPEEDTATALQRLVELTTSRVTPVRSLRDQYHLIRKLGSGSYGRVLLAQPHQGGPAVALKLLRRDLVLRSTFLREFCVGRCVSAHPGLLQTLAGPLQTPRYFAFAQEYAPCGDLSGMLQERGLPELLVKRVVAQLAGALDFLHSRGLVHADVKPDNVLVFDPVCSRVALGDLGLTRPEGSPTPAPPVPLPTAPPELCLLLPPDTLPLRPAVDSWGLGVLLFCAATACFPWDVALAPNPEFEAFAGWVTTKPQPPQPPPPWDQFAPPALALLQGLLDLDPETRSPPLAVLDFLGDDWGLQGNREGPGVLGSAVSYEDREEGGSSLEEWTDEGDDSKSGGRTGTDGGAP
ZAP70 (human), sequence (P43403 whole entry, looked up): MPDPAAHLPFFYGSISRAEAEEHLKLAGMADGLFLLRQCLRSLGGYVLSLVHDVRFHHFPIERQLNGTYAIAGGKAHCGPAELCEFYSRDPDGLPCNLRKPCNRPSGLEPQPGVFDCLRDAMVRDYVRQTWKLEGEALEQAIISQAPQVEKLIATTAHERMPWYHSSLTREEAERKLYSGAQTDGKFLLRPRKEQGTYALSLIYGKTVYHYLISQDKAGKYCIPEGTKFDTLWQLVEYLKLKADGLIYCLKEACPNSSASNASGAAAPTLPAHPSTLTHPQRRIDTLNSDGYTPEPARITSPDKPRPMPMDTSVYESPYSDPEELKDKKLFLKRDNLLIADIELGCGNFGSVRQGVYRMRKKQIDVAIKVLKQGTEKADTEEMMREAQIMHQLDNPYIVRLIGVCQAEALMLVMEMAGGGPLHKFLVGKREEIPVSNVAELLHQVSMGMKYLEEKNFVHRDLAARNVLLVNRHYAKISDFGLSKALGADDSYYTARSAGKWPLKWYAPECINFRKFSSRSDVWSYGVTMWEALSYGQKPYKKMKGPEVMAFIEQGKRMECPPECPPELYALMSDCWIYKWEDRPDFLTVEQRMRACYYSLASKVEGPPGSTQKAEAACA
MELK (human), sequence (Q14680 whole entry, looked up): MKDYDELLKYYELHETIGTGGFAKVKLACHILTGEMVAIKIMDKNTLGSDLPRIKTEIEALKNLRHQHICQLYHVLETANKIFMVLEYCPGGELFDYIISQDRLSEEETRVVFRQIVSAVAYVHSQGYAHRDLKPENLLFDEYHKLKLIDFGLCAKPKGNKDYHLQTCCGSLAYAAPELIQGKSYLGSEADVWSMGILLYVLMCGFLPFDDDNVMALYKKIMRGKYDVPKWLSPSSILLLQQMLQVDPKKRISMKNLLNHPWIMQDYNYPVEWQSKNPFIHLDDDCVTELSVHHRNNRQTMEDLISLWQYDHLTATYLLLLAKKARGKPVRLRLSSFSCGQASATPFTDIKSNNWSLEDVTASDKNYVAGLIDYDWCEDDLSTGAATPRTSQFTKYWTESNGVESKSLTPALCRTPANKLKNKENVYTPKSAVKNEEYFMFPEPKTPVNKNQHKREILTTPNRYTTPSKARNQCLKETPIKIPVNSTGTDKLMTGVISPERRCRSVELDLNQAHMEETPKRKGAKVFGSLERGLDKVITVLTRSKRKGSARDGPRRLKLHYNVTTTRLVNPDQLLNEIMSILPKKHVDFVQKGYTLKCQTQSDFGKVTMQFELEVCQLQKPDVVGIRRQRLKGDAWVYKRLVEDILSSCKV

N#Cc1ccc2ncnc(NCCc3ccc4ccccc4c3)c2c1
kinase still bound, per cent of control (RIPK1 (human)): 85%
kinase still bound, per cent of control (STK25 (human)): 100%
kinase still bound, per cent of control (PRKAA1 (human)): 89%
kinase still bound, per cent of control [1]: 89%
kinase still bound, per cent of control (PRKAA2 (human)): 80%
kinase still bound, per cent of control (CDK18 (human)): 97%
kinase still bound, per cent of control (ICK (human)): 100%
kinase still bound, per cent of control (PTK6 (human)): 96%
kinase still bound, per cent of control (SGK110 (human)): 79%
kinase still bound, per cent of control [2]: 100%
kinase still bound, per cent of control (CDK9 (human)): 100%
kinase still bound, per cent of control (MAP3K12 (human)): 100%
kinase still bound, per cent of control (MATK (human)): 100%
kinase still bound, per cent of control [3]: 94%
kinase still bound, per cent of control (IRAK3 (human)): 82%
kinase still bound, per cent of control (ALK (human)): 100%
kinase still bound, per cent of control (SIK1 (human)): 100%
kinase still bound, per cent of control (HCK (human)): 88%
kinase still bound, per cent of control (PLK2 (human)): 98%
kinase still bound, per cent of control (IRAK4 (human)): 100%
kinase still bound, per cent of control (CSNK1E (human)): 100%
kinase still bound, per cent of control (MAP3K15 (human)): 91%
kinase still bound, per cent of control (OXSR1 (human)): 100%
kinase still bound, per cent of control (CDK19 (human)): 0.8%
kinase still bound, per cent of control (CDK17 (human)): 90%
kinase still bound, per cent of control (PRKCI (human)): 100%
kinase still bound, per cent of control (MELK (human)): 84%
kinase still bound, per cent of control (RPS6KA6 KD2 (human)): 86%
kinase still bound, per cent of control (PDGFRA (human)): 92%
kinase still bound, per cent of control (EPHA7 (human)): 93%
kinase still bound, per cent of control (HIPK1 (human)): 100%
kinase still bound, per cent of control (CAMK1G (human)): 86%
kinase still bound, per cent of control (IGF1R (human)): 100%
kinase still bound, per cent of control (MAP2K2 (human)): 80%
kinase still bound, per cent of control [4]: 100%
kinase still bound, per cent of control (ERBB3 (human)): 100%
kinase still bound, per cent of control (ZAP70 (human)): 94%
kinase still bound, per cent of control (MAP4K3 (human)): 100%
kinase still bound, per cent of control (MYLK4 (human)): 81%
kinase still bound, per cent of control (PDPK1 (human)): 100%
kinase still bound, per cent of control (TEK (human)): 100%
kinase still bound, per cent of control (TNIK (human)): 97%
kinase still bound, per cent of control [5]: 100%
